These results are taken from patent US10072304B2, “Nuclear localization of Src-family tyrosine kinases is required for growth factor-induced euchromatinization” (National University Corporation Chiba University, priority 2009, dated 2018).

This assay concerns COS-1 cells. The experiment in a line: Anti-pTyr immunofluorescent staining of tyrosine phosphorylation in COS-1 cells. The class given is cell-based, monkey. On the procedure: COS-1, HeLa cells (Japanese Collection of Research Bioresources, Osaka), MCF-7 (provided by H. Saya), A431 (provided by M. N. Fukuda), HEK293 (provided by M. Tagawa), HCT116 (provided by T. Tomonaga), and SYF ([37]; provided by M. Okada and S. Nada) cells were cultured in Iscove's modified DME containing 5% fetal bovine serum (FBS). Cells were transiently transfected with 0.5 μg of plasmid vector using Trans IT Transfection reagent (Mirus) or with 1 μg of plasmid vector using linear polyethylenimine (25 kDa) (Polyscience, Inc.). For growth factor stimulation, COS-1 cells were starved under low serum conditions (0.05% FBS) for 24 h and restimulated with serum (5% FBS). For stimulation of endogenous SFKs, cells were treated with 3 mM Na3VO4 for 3 h, and SFK-mediated tyrosine phosphorylation was verified by treatment with 10 μM PP2 (SFK inhibitor; Calbiochem) or 100 nM wortmannin (PI3K inhibitor; Alomone Labs) for 21 h before Na3VO4 treatment. Na3VO4 was dissolved at 500 mM in 500 mM unbuffered HEPES before use. For preparation of stable transfectant clones, SYF cells transfected with c-Src-wt or Lyn-wt were selected in 333 μg/mL Zeocin (Invitrogen), and COS-1 cells were transfected with the BOSH2BGFP-N1 vector, which encodes GFP-tagged histone H2B ([39,40]; provided by H. Saya), were selected in 3 μg/mL blasticidin.
Confocal and Nomarski differential-interference-contrast images were obtained using a Fluoview FV500 confocal laser scanning microscope with a 40×1.00 NA oil and a 100×1.35 NA oil immersion objective (Olympus, Tokyo) and an LSM 510 confocal laser scanning microscope with a 63×1.40 NA oil immersion objective (Zeiss), as described. One planar (xy) section slice (0.6-μm thickness) is shown in all experiments. In brief, cells were fixed with 4% paraformaldehyde for 20 min, and permeabilized in phosphate-buffered saline (PBS) containing 0.1% saponin and 3% bovine serum albumin at room temperature. Cells were subsequently reacted with an appropriate primary antibody for 1 h, washed with PBS containing 0.1% saponin, stained with FITC- or TRITC-conjugated secondary antibody for 1 h. For DNA staining, cells were subsequently treated with 200 μg/ml RNase A for 1 h and 20 μg/ml propidium iodide (PI) for 30 min, and mounted with Prolong Antifade™ reagent (Molecular Probes). To ensure no bleed-through from the fluorescein signal into the red channel, fluorescein and rhodamine were independently excited at 488 nm and 543 nm, respectively. PI was excited at 488 or 543 nm. Emission signals were detected between 505 and 525 nm for fluorescein, at more than 560 nm for rhodamine and more than 610 nm for PI [44]. Composite figures were prepared using Photoshop 5.0 and Illustrator 9.0 software (Adobe). For nuclear staining with anti-pTyr, anti-ATF-2 pT69/71, and anti-histone H3K4me3 antibodies, cells were in situ extracted with 0.5% Triton X-100 at 4° C. for 3 min before fixation with 4% paraformaldehyde. For HP1α staining, cells were fixed in 100% methanol at −20° C. for 10 min followed by permeabilization for 30 min in PBS containing 0.1% Triton X-100 at room temperature. Cells were reacted with anti-HP1α antibody for 1 h at room temperature, washed with PBS four times, and stained with secondary antibody for 1 h. Fluorescence intensity plots of anti-histone H3K4me3, anti-ATF-2 pT69/71 and anti-HP1α antibody and PI staining (see FIGS. 18B, 19B, and 20B, respectively) were generated using Fluoview version 4.3 software (Olympus, Tokyo). […]

Take `[Na+].[Na+].[Na+].[O]=[V]([O-])([O-])[O-]` [Na3VO4, sodium orthovanadate]: the “tyrosine phosphorylation throughout the cell” value (3 mM Na3VO4 for 3 h, FIG. 23) is reported as “greatly increased”. Moreover, the “tyrosine phosphorylation within the nucleus” value (Na3VO4, in situ extraction with 0.5% Triton X-100 before fixation, FIGS. 24 and 25) is “increase in tyrosine phosphorylation induced by Na3VO4 was clearly visible”.

As for `CC(C)(C)n1nc(-c2ccc(Cl)cc2)c2c(N)ncnc21` [PP2], for the setting “10 μM PP2 or 100 nM wortmannin for 24 h, FIG. 22”, the “basal levels of tyrosine phosphorylation” value was “significantly reduce”. Besides, the “tyrosine phosphorylation in Na3VO4-treated cells” value (10 μM PP2 pretreatment 21 h, then 3 mM Na3VO4 3 h, FIG. 23) is given as “decreased”. The “Na3VO4-induced increase in nuclear tyrosine phosphorylation” value (PP2 plus Na3VO4, in situ extraction with 0.5% Triton X-100, FIGS. 24 and 25) was “significantly inhibited”.
